Data: ChEMBL document CHEMBL3091402, “Identification of clinical candidates from the benzazepine class of histamine H3 receptor antagonists” (Bioorg Med Chem Lett, 2013)

Columns and labels:
[1] = target: T1, Histamine H3 receptor (Rattus norvegicus, UniProt Q9QYN8); assay: Displacement of [3H]-R-alpha-ethylhistamine from histamine H3 receptor in rat cerebral cortical tissue membranes after 45 mins by liquid scintillation spectrometry
[2] = tested on: Rattus norvegicus; assay: Ex vivo binding affinity to histamine H3 receptor in rat cerebral cortex using [3H]-R-alpha-ethylhistamine at 3 mg/kg, po after 3 hrs by HPLC analysis; format: functional
[3] = target: Histamine H3 receptor (Homo sapiens, UniProt Q9Y5N1); assay: Antagonist activity at human histamine H3 receptor expressed in CHOK1 cells assessed as inhibition of GTPgammaS binding; format: functional, cell-based, CHO-K1
Sequence of Histamine H3 receptor (Homo sapiens, UniProt Q9Y5N1) (Q9Y5N1 whole entry): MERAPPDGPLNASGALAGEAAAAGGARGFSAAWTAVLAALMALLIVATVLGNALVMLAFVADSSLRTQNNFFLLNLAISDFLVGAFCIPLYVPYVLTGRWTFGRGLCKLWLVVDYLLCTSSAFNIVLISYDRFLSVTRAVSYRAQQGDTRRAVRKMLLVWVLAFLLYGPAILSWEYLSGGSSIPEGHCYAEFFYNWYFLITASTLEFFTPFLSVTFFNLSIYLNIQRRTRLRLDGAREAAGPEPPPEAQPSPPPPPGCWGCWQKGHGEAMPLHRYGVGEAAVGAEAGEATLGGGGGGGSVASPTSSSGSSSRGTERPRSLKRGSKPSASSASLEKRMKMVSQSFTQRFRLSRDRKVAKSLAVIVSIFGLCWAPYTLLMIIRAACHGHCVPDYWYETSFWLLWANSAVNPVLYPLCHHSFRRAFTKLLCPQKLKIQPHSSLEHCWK

[4] = tested on: Rattus norvegicus; assay: Ex vivo binding affinity to histamine H3 receptor in rat cerebral cortex using [3H]-R-alpha-ethylhistamine at 0.3 mg/kg, po after 3 hrs by HPLC analysis; format: functional
[5] = tested on: Rattus norvegicus; assay: Reversal of RAMH-induced dipsogenia in Lister Hooded rat at 3 mg/kg, po treated 2 hrs before RAMH challenge measured after 1 hr; format: functional
[6] = tested on: Blood; assay: Drug level in rat blood at 3 mg/kg, po; format: ADME, organism-based; design: dose 3 mg/kg, route oral; settings: in vivo, read-out: Drug uptake
[7] = tested on: Liver microsome; assay: Intrinsic clearance in rat liver microsomes; format: ADME
[8] = tested on: Liver microsome; assay: Intrinsic clearance in human liver microsomes; format: ADME
[9] = target: T1, Histamine H3 receptor; assay: Displacement of [3H]-R-alpha-ethylhistamine from rat histamine H3 receptor expressed in HEK293 cells after 45 mins by liquid scintillation spectrometry; format: cell-based
[10] = tested on: Rattus norvegicus; assay: Reversal of RAMH-induced dipsogenia in po dosed Lister Hooded rat treated 2 hrs before RAMH challenge measured after 1 hr; format: functional
[11] = target: Histamine H4 receptor (Homo sapiens, UniProt Q9H3N8); assay: Binding affinity to human histamine H4 receptor
[12] = Ratio of drug level in brain to blood in rat at 3 mg/kg, po after 1 hr; format: ADME, organism-based; design: dose 3 mg/kg, route oral
[13] = tested on: Rattus norvegicus; assay: Ex vivo binding affinity to histamine H3 receptor in po dosed rat cerebral cortex using [3H]-R-alpha-ethylhistamine after 2 hrs by HPLC analysis; format: functional
[14] = target: Histamine H2 receptor (Homo sapiens, UniProt P25021); assay: Binding affinity to human histamine H2 receptor
Sequence of Histamine H2 receptor (P25021 whole entry): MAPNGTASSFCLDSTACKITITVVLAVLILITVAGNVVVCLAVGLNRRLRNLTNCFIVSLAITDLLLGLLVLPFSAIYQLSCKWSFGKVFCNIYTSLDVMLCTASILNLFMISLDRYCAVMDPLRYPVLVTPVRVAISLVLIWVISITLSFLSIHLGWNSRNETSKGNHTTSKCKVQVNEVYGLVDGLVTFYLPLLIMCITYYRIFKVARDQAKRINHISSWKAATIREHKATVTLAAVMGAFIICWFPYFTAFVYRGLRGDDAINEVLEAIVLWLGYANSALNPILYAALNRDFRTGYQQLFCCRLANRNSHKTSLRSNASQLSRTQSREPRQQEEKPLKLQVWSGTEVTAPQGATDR

[15] = Time dependent inhibition of CYP450 (unknown origin); format: ADME, Homo sapiens
[16] = target: hERG (KCNH2) (Homo sapiens, UniProt Q12809); assay: Inhibition of human ERG at 10 uM by patch clamp experiment
Sequence of hERG (KCNH2) (Q12809 whole entry): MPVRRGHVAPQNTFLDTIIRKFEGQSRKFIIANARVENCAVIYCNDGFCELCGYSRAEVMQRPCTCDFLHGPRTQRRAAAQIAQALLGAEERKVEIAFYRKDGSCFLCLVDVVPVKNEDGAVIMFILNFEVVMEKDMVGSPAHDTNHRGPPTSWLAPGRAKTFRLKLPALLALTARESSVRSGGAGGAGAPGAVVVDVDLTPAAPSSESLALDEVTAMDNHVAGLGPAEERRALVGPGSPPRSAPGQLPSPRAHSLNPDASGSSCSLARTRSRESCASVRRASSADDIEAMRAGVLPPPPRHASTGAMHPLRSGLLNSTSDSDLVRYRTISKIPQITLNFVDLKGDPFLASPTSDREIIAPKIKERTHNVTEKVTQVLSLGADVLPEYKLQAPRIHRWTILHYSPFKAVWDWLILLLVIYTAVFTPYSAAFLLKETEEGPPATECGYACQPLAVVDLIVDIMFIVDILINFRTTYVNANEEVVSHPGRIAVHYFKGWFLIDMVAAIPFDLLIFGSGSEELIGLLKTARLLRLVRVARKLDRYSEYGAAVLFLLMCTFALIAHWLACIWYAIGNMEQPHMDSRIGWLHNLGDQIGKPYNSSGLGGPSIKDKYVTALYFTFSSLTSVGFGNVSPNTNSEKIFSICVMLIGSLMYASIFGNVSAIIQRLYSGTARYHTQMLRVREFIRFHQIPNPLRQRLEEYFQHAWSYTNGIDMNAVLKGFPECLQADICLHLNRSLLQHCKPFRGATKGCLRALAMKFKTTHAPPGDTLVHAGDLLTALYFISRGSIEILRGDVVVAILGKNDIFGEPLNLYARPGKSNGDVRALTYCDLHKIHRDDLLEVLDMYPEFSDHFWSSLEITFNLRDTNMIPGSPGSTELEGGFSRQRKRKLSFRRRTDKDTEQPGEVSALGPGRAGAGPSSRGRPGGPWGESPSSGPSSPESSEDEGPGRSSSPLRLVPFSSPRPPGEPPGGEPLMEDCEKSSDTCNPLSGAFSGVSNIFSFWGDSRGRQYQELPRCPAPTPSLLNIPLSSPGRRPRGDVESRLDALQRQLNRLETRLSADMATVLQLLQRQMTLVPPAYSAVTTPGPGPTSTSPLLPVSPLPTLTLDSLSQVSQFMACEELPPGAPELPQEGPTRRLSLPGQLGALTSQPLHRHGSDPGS

[17] = target: Histamine H1 receptor (Homo sapiens, UniProt P35367); assay: Binding affinity to human histamine H1 receptor
Sequence of Histamine H1 receptor (P35367 whole entry): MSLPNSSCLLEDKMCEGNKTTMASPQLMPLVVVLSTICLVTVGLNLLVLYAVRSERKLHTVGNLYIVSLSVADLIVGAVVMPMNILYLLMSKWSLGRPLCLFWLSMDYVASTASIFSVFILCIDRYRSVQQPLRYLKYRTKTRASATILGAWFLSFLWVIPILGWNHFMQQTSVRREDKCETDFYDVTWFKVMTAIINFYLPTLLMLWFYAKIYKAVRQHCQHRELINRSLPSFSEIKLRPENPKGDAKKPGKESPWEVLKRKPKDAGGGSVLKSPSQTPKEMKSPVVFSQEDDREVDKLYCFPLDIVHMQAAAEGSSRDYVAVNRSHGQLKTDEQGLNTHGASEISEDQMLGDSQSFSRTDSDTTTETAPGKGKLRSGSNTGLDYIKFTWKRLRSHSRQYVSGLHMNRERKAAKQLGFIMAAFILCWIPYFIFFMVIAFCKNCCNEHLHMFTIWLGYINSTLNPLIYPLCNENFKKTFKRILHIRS

[18] = Aqueous solubility of the compound; format: physicochemical
[19] = Ratio of drug level in brain to blood in rat at 3 mg/kg, po; format: ADME, organism-based; design: dose 3 mg/kg, route oral

T1 sequence (Q9QYN8 whole entry): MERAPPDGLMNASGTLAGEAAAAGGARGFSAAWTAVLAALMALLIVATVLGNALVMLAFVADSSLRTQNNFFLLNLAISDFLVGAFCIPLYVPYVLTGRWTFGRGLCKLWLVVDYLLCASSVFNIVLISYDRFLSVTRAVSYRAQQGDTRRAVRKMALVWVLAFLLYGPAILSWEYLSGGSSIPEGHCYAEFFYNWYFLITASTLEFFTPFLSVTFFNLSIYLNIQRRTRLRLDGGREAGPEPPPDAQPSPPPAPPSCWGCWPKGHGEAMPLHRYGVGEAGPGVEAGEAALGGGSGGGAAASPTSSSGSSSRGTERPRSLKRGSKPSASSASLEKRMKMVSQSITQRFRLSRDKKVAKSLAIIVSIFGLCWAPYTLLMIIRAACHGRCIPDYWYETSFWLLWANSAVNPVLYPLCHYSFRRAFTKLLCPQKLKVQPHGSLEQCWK

SMILES | Ki [1] | Ki [3] | concentration [6] | Activity [2] | ED50 [13] | other results
CC1CCC(=O)N1c1ccc(Oc2ccc3c(c2)CCN(C2CCC2)CC3)nc1 (stereo not drawn) | 2.51 nM | 0.316 nM | – | 52% | – | –
O=C1OCCN1c1ccc(Oc2ccc3c(c2)CCN(C2CCC2)CC3)nc1 | 0.794 nM | 0.158 nM | – | – | – | Activity [4]: 44%
O=C(c1ccc(Oc2ccc3c(c2)CCN(C2CCC2)CC3)nc1)N1CCCC1 | 0.631 nM | 0.251 nM | 10 nM | 65% | – | Activity [5]: 78%; CLH [7]: < 3 mL/min/g
CCN(C)C(=O)c1ccc(Oc2ccc3c(c2)CCN(C2CCC2)CC3)nc1 | 10 nM | 0.631 nM | 270 nM | 56% | – | Activity [5]: 94%; Kp at 1 h [12]: 1; CLH [7]: < 3 mL/min/g
c1cnc(Oc2ccc3c(c2)CCN(C2CCC2)CC3)nc1 | – | 2.51 nM | – | – | – | –
c1cnc(Oc2ccc3c(c2)CCN(C2CCC2)CC3)cn1 | – | 1.58 nM | – | – | – | –
c1ccc(Oc2ccc3c(c2)CCN(C2CCC2)CC3)cc1 | – | 3.16 nM | – | – | – | –
O=C(N1CCOCC1)N1CCC(Oc2ccc3c(c2)CCN(C2CCC2)CC3)CC1 | – | – | – | 43% | 2 mg/kg | Activity [5]: 100%
CNC(=O)c1ccc(Oc2ccc3c(c2)CCN(C2CCC2)CC3)cn1 | 3.98 nM | 0.501 nM | 570 nM | 82% | 0.43 mg/kg | ED50 [10]: 0.25 mg/kg; Kp [19]: 3.4

Second part, led by results:

Ki [1] | Ki [3] | concentration [6] | SMILES | Activity [2] | ED50 [13] | other results
2.51 nM | 0.251 nM | – | c1cc(-c2ccc(Oc3ccc4c(c3)CCN(C3CCC3)CC4)nc2)[nH]n1 | – | – | Activity [4]: 23%
2.51 nM | 0.501 nM | – | Cc1noc(C)c1-c1ccc(Oc2ccc3c(c2)CCN(C2CCC2)CC3)nc1 | 48% | – | –
2.63 nM | 0.2 nM | 880 nM | CNC(=O)c1ccc(Oc2ccc3c(c2)CCN(C2CCC2)CC3)nc1 [GSK189254] | 100% | 0.17 mg/kg | CLH [8]: 0.5 mL/min/g; Ki [9]: 0.676 nM; ED50 [10]: 0.05 mg/kg; Activity [5]: 100%; Ki [11]: > 3160 nM; Kp at 1 h [12]: 1.3; CLH [7]: 0.5 mL/min/g; Ki [14]: > 3160 nM; IC50 [15]: > 10000 nM; inhibition at 10 µM [16]: 36%; Ki [17]: > 2510 nM; solubility [18]: > 10000 µg/mL
2 nM | 0.501 nM | – | NC(=O)c1ccc(Oc2ccc3c(c2)CCN(C2CCC2)CC3)nc1 | 81% | – | CLH [7]: < 3 mL/min/g
– | 0.794 nM | – | c1ccc(Oc2ccc3c(c2)CCN(C2CCC2)CC3)nc1 | – | – | –
1 nM | 0.2 nM | 1200 nM | CC(=O)Nc1ccc(Oc2ccc3c(c2)CCN(C2CCC2)CC3)nc1 | 89% | 0.32 mg/kg | Kp [19]: 0.8
0.501 nM | 0.158 nM | 2700 nM | Cc1nnc(-c2ccc(Oc3ccc4c(c3)CCN(C3CCC3)CC4)nc2)o1 | 84% | 0.42 mg/kg | ED50 [10]: 0.05 mg/kg; Kp [19]: 2.8
